# Bridge positions count the residues as written; N and C are the ends. Square brackets hold non-standard residues; d marks the D form. Peptide text beside a SMILES is read from it. * marks the point of attachment. Bip = N[C@@H](Cc1ccc(-c2ccccc2)cc1)C(=O)O; X3 = NC(=O)C[C@H](N*)C(c1ccccc1)c1ccccc1; Dip = N[C@H](C(=O)O)C(c1ccccc1)c1ccccc1; 1Nal = N[C@@H](Cc1cccc2ccccc12)C(=O)O; StBu = CC(C)(C)S*; tBu = CC(C)(C)*
# Target: T1, ferroportin fused to green fluorescent protein (ECR293/Fpn-GFP cells) (Mus musculus, UniProt Q9JHI9)
# T1 sequence (Q9JHI9 1-570): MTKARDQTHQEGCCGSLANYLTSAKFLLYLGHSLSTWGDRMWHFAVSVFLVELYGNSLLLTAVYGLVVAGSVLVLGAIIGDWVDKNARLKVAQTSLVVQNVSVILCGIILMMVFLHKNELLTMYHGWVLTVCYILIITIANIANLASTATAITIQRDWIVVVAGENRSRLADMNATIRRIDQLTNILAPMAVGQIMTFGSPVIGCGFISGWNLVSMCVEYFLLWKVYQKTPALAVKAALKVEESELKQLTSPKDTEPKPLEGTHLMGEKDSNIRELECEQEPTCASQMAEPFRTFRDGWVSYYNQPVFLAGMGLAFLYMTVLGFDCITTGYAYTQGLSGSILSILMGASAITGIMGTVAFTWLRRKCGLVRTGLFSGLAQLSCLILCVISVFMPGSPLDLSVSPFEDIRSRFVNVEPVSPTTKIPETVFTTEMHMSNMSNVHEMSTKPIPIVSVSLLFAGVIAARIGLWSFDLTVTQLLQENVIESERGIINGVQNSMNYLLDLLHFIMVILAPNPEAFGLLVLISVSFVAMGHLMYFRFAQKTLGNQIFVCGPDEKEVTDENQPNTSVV
# Experiment: Flow cytometry of ferroportin-GFP internalization and degradation in ECR293/Fpn-GFP cells
# Type: cell-based
# Conditions: concentration eliciting 50% of maximal loss of fluorescence generated by reference Hep25; 24 hours
# Method: In vitro activity may be measured by the dose-dependent loss of fluorescence of cells engineered to display ferroportin fused to green fluorescent protein as in Nemeth et al. (2006) Blood 107:328-33. […]
# FLOW CYTOMETRY. The activity of peptides of the present invention was measured by flow cytometry as previously described. See Nemeth et al. (2006) Blood 107:328-333, which is herein incorporated by reference. ECR293/Fpn-GFP, a cell line stably transfected with a ponasterone-inducible ferroportin construct tagged at the C-terminus with green fluorescent protein was used. See Nemeth et al. (2004) Science 306:2090-2093, which is herein incorporated by reference. Briefly, the cells were plated on poly-D-lysine coated plates in the presence of 20 μM FAC, with or without 10 μM ponasterone. After 24 hours, ponasterone was washed off, and cells were treated with peptides for 24 hours. Cells were then trypsinized and resuspended at 1×10^6 cells/ml, and the intensity of green fluorescence was analyzed by flow cytometry. […] Cells not induced with ponasterone to express Fpn-GFP were used to establish a gate to exclude background fluorescence. Cells induced with ponasterone, but not treated with any peptides, were used as the positive control. Each peptide was tested over the range of concentrations (0, 0.01, 0.03, 0.1, 0.3, 1, 3 and 10 μM). Each peptide treatment was repeated independently 3 to 6 times.
row,EC50,Compound
1,30 nM,CC[C@H](C)[C@H](NC(=O)[C@H](CS)NC(=O)[C@@H](NC(=O)[C@@H]1CCCN1C(=O)[C@@H](NC(=O)[C@H](Cc1c[nH]cn1)NC(=O)[C@@H](NC(=O)[C@@H](N)CC(=O)O)[C@@H](C)O)C(c1ccccc1)c1ccccc1)[C@@H](C)CC)C(=O)N[C@@H](Cc1ccccc1)C(N)=O [F4Dpa] (H-DTH[Dip]PICIF-NH2; N-terminus assumed)
2,150 nM,CC[C@H](C)[C@H](NC(=O)[C@H](CS)NC(=O)[C@@H](NC(=O)[C@@H]1CCCN1C(=O)[C@H](Cc1ccccc1)NC(=O)[C@H](Cc1c[nH]cn1)NC(=O)[C@@H](NC(=O)[C@@H](N)CC(=O)O)[C@@H](C)O)[C@@H](C)CC)C(=O)N[C@@H](Cc1ccccc1)C(=O)N1CCC[C@H]1CC(=O)N1CCC[C@H]1C(=O)N[C@@H](CCCCN)C(N)=O [Pr15]
3,50 nM,CC[C@H](C)[C@H](NC(=O)[C@H](CS)NC(=O)[C@@H](NC(=O)[C@@H]1CCCN1C(=O)[C@H](Cc1ccccc1)NC(=O)[C@H](Cc1c[nH]cn1)NC(=O)[C@@H](NC(=O)[C@@H](N)CC(=O)O)[C@@H](C)O)[C@@H](C)CC)C(=O)N[C@@H](Cc1ccccc1)C(=O)N1CCC[C@H]1CC(=O)N1CCC[C@H]1C(=O)N[C@@H](CCCNC(=N)N)C(N)=O [Pr16]
4,300 nM,CC[C@H](C)[C@H](NC(=O)[C@H](CS)NC(=O)[C@@H](NC(=O)[C@@H]1CCCN1C(=O)[C@H](Cc1ccccc1)NC(=O)[C@H](Cc1c[nH]cn1)NC(=O)[C@@H](NC(=O)[C@@H](N)CC(=O)O)[C@@H](C)O)[C@@H](C)CC)C(=O)N[C@@H](Cc1ccccc1)C(=O)N1CCC[C@@H]1C(=O)N1CCC[C@H]1CC(=O)N[C@@H](CCCCN)C(N)=O [Pr17]

row,Compound,EC50
1,CC[C@H](C)[C@H](NC(=O)[C@H](CS)NC(=O)[C@@H](NC(=O)[C@@H]1CCCN1C(=O)[C@H](Cc1ccccc1)NC(=O)[C@H](Cc1c[nH]cn1)NC(=O)[C@@H](NC(=O)[C@@H](N)CC(=O)O)[C@@H](C)O)[C@@H](C)CC)C(=O)N[C@@H](CC(N)=O)C(c1ccccc1)c1ccccc1 [F9bhDpa] (H-DTHFPICI-X3),100 nM

# Same assay, conditions: concentration eliciting 50% of maximal loss of fluorescence generated by reference Hep25; 24 hours; read-out: EC50 (the source's name)
row,Compound,DC50
1,CC[C@H](C)[C@H](NC(=O)[C@@H]1CCCN1C(=O)[C@H](Cc1ccccc1)NC(=O)[C@H](Cc1c[nH]cn1)NC(=O)[C@@H](NC(=O)[C@@H](N)CC(=O)O)[C@@H](C)O)C(=O)N[C@@H](C(=O)N[C@H](C(=O)N[C@@H](Cc1ccccc1)C(N)=O)[C@@H](C)CC)C(C)(C)S [(D)Pen],3000 nM
2,CC[C@H](C)[C@H](NC(=O)[C@H](CS)NC(=O)[C@@H](NC(=O)[C@@H]1CCCN1C(=O)[C@H](Cc1ccc(-c2ccccc2)cc1)NC(=O)[C@H](Cc1c[nH]cn1)NC(=O)[C@@H](NC(=O)[C@@H](N)CC(=O)O)[C@@H](C)O)[C@@H](C)CC)C(=O)N[C@@H](Cc1ccccc1)C(N)=O [F4Bip] (H-DTH[Bip]PICIF-NH2; N-terminus assumed),150 nM
3,CC[C@H](C)[C@H](NC(=O)[C@H](CS)NC(=O)[C@@H](NC(=O)[C@@H]1CCCN1C(=O)C[C@H](Cc1ccccc1)NC(=O)[C@H](Cc1c[nH]cn1)NC(=O)[C@@H](NC(=O)[C@@H](N)CC(=O)O)[C@@H](C)O)[C@@H](C)CC)C(=O)N[C@@H](Cc1ccccc1)C(N)=O [F4bhPhe],700 nM
4,CC[C@H](C)[C@H](NC(=O)[C@H](CS)NC(=O)[C@@H](NC(=O)[C@@H]1CCCN1C(=O)[C@H](Cc1ccccc1)NC(=O)[C@H](Cc1c[nH]cn1)NC(=O)[C@@H](NC(=O)[C@@H](N)CC(=O)O)[C@@H](C)O)[C@@H](C)CC)C(=O)N[C@H](C(N)=O)C(c1ccccc1)c1ccccc1 [F9Dpa] (H-DTHFPICI[Dip]-NH2),70 nM
5,CC[C@H](C)[C@H](NC(=O)[C@H](CSSC(C)(C)C)NC(=O)[C@@H](NC(=O)[C@@H]1CCCN1C(=O)[C@H](C)NC(=O)[C@H](Cc1c[nH]cn1)NC(=O)[C@@H](NC(=O)[C@@H](N)CC(=O)O)[C@@H](C)O)[C@@H](C)CC)C(=O)N[C@@H](Cc1ccccc1)C(N)=O [Hep9C7-SStBut] (H-DTHAPIC(StBu)IF-NH2),700 nM
6,CC[C@H](C)[C@H](NC(=O)[C@H](CSC(C)(C)C)NC(=O)[C@@H](NC(=O)[C@@H]1CCCN1C(=O)[C@H](C)NC(=O)[C@H](Cc1c[nH]cn1)NC(=O)[C@@H](NC(=O)[C@@H](N)CC(=O)O)[C@@H](C)O)[C@@H](C)CC)C(=O)N[C@@H](Cc1ccccc1)C(N)=O [Hep9C7-tBut] (H-DTHAPIC(tBu)IF-NH2),> 10000 nM
7,"CC[C@H](C)[C@@H]1NC(=O)[C@@H](NC(=O)[C@@H](NC(=O)[C@@H]2CCCN2C(=O)[C@H](Cc2ccccc2)NC(=O)[C@H](Cc2c[nH]cn2)NC(=O)[C@@H](NC(=O)[C@@H](N)CC(=O)O)[C@@H](C)O)[C@@H](C)CC)CSSC[C@@H](C(=O)N[C@@H](CCCCN)C(=O)N[C@H](C(=O)O)[C@@H](C)O)NC(=O)[C@@H]2CSSC[C@@H]3NC(=O)[C@@H]4CSSC[C@H](NC(=O)[C@H](Cc5ccccc5)NC1=O)C(=O)N[C@@H](CSSC[C@H](NC(=O)[C@H](CCCCN)NC(=O)[C@H](CO)NC(=O)[C@H](CCCNC(=N)N)NC(=O)[C@H](Cc1c[nH]cn1)NC3=O)C(=O)NCC(=O)N[C@@H](CCSC)C(=O)N2)C(=O)NCC(=O)N4 [Hep25, reference compound]",10 nM
8,CC[C@H](C)[C@H](NC(=O)[C@@H](NC(=O)[C@@H](NC(=O)[C@@H]1CCCN1C(=O)[C@H](Cc1ccccc1)NC(=O)[C@H](Cc1c[nH]cn1)NC(=O)[C@@H](NC(=O)[C@@H](N)CC(=O)O)[C@@H](C)O)[C@@H](C)CC)C(C)(C)S)C(=O)N[C@@H](Cc1ccccc1)C(N)=O [Pen],700 nM
9,CC[C@H](C)[C@H](NC(=O)[C@H](CS)NC(=O)[C@@H](NC(=O)[C@@H]1CCCN1C(=O)[C@H](Cc1ccccc1)NC(=O)[C@H](Cc1c[nH]cn1)NC(=O)[C@@H](NC(=O)[C@@H](N)CC(=O)O)[C@@H](C)O)[C@@H](C)CC)C(=O)N[C@@H](Cc1ccccc1)C(=O)N1CCC[C@@H]1C(=O)N1CCC[C@H]1C(=O)N[C@@H](CCCCN)C(N)=O [Pr13],100 nM

# The remaining lines, values ahead:
row,DC50,Compound
1,110 nM,CC[C@H](C)[C@H](NC(=O)[C@H](CS)NC(=O)[C@@H](NC(=O)[C@@H]1CCCN1C(=O)[C@H](Cc1cccc2ccccc12)NC(=O)[C@H](Cc1c[nH]cn1)NC(=O)[C@@H](NC(=O)[C@@H](N)CC(=O)O)[C@@H](C)O)[C@@H](C)CC)C(=O)N[C@@H](Cc1ccccc1)C(N)=O [F4 1Nal] (H-DTH[1Nal]PICIF-NH2; N-terminus assumed)
2,150 nM,CC[C@H](C)[C@H](NC(=O)[C@H](CS)NC(=O)[C@@H](NC(=O)[C@@H]1CCCN1C(=O)[C@H](Cc1ccccc1)NC(=O)[C@H](Cc1c[nH]cn1)NC(=O)[C@@H](NC(=O)[C@@H](N)CC(=O)O)[C@@H](C)O)[C@@H](C)CC)C(=O)N[C@@H](Cc1ccc(-c2ccccc2)cc1)C(N)=O [F9Bip] (H-DTHFPICI[Bip]-NH2; N-terminus assumed)
3,150 nM,CC[C@H](C)[C@H](NC(=O)[C@H](CS)NC(=O)[C@@H](NC(=O)[C@@H]1CCCN1C(=O)[C@H](Cc1ccccc1)NC(=O)[C@H](Cc1c[nH]cn1)NC(=O)[C@@H](NC(=O)[C@@H](N)CC(=O)O)[C@@H](C)O)[C@@H](C)CC)C(=O)N[C@H](CC(N)=O)Cc1ccccc1 [F9bhPhe]
4,200 nM,CC[C@H](C)[C@H](NC(=O)[C@H](CS)NC(=O)[C@@H](NC(=O)[C@@H]1CCCN1C(=O)[C@H](Cc1ccccc1)NC(=O)[C@H](Cc1c[nH]cn1)NC(=O)[C@@H](NC(=O)[C@@H](N)CC(=O)O)[C@@H](C)O)[C@@H](C)CC)C(=O)N[C@@H](Cc1cccc2ccccc12)C(N)=O [F91Nal] (H-DTHFPICI[1Nal]-NH2; N-terminus assumed)
5,> 10000 nM,CC[C@H](C)[C@H](NC(=O)[C@@H]1CCCN1C(=O)[C@@H](N)Cc1ccccc1)C(=O)N[C@@H](CS)C(N)=O [Hep4] (H-FPIC-NH2)
6,90 nM,CC[C@H](C)[C@H](NC(=O)[C@H](CS)NC(=O)[C@@H](NC(=O)[C@@H]1CCCN1C(=O)[C@H](Cc1ccccc1)NC(=O)[C@H](Cc1c[nH]cn1)NC(=O)[C@@H](NC(=O)[C@@H](N)CC(=O)O)[C@@H](C)O)[C@@H](C)CC)C(=O)N[C@@H](Cc1ccccc1)C(=O)N1CCC[C@@H]1C(=O)N1CCC[C@H]1C(=O)N[C@@H](CCCNC(=N)N)C(N)=O [Pr14]

# Same assay, conditions: read-out: EC50; concentration eliciting 50% of maximal loss of fluorescence generated by reference Hep25; 24 hours
row,Compound,DC50
1,CC[C@H](C)[C@H](NC(=O)[C@@H]1CSSC[C@H](N)C(=O)N[C@@H](Cc2c[nH]cn2)C(=O)N[C@@H](Cc2ccccc2)C(=O)N2CCC[C@H]2C(=O)N[C@@H]([C@@H](C)CC)C(=O)N1)C(=O)N[C@@H](Cc1ccccc1)C(N)=O [Cyc-2] (H-CHFPICIF-NH2; disulfide 1-6),> 10000 nM
